O=C(O)c1ccccc1
Conditions | solubility (mole fraction)
in 2-butanone, 278.65 K | 0.131
in 2-butanone, 284.29 K | 0.148
in 2-butanone, 289.86 K | 0.166
in 2-butanone, 295.54 K | 0.186
in 2-butanone, 301.27 K | 0.206
in 2-butanone, 307.1 K | 0.229
in 2-butanone, 313.04 K | 0.254
in 2-butanone, 319.06 K | 0.281
in 2-butanone, 325.2 K | 0.311
in MIBK, 276.45 K | 0.11
in MIBK, 281.66 K | 0.124
in MIBK, 287.16 K | 0.139
in MIBK, 292.73 K | 0.156
in MIBK, 298.25 K | 0.175
in MIBK, 303.76 K | 0.195
in MIBK, 309.36 K | 0.217
in MIBK, 315.05 K | 0.242
in MIBK, 320.74 K | 0.264
in MIBK, 325.16 K | 0.281
in ethyl acetate, 279.67 K | 0.105
in ethyl acetate, 285.24 K | 0.121
in ethyl acetate, 289.24 K | 0.133
in ethyl acetate, 293.36 K | 0.146
in ethyl acetate, 298.93 K | 0.167
in ethyl acetate, 303.76 K | 0.186
in ethyl acetate, 308.76 K | 0.206
in ethyl acetate, 313.66 K | 0.228
in ethyl acetate, 318.65 K | 0.252
in ethyl acetate, 323.56 K | 0.278
in ethyl acetate, 326.5 K | 0.306
in isopropyl acetate, 276.27 K | 0.0855
in isopropyl acetate, 283.74 K | 0.105
in isopropyl acetate, 288.69 K | 0.118
in isopropyl acetate, 293.67 K | 0.134
in isopropyl acetate, 298.34 K | 0.15
in isopropyl acetate, 303.36 K | 0.168
in isopropyl acetate, 308.33 K | 0.188
in isopropyl acetate, 313.25 K | 0.209
in isopropyl acetate, 318.25 K | 0.232
in isopropyl acetate, 324.02 K | 0.26
in methanol, 278 K | 0.111
in methanol, 285.5 K | 0.129
in methanol, 292.23 K | 0.145
in methanol, 298.99 K | 0.164
in methanol, 304.78 K | 0.18
in methanol, 312.56 K | 0.204
in methanol, 319.32 K | 0.227
in methanol, 323.49 K | 0.241
in n-butanol, 276.92 K | 0.116
in n-butanol, 281.92 K | 0.13
in n-butanol, 291.77 K | 0.16
in n-butanol, 296.56 K | 0.176
in n-butanol, 301.56 K | 0.194
in n-butanol, 311.66 K | 0.234
in n-butanol, 316.79 K | 0.256
in n-butanol, 321.9 K | 0.279
in n-butanol, 327.3 K | 0.306
in n-propanol, 279.06 K | 0.119
in n-propanol, 284.15 K | 0.133
in n-propanol, 289.26 K | 0.148
in n-propanol, 294.47 K | 0.164
in n-propanol, 299.65 K | 0.182
in n-propanol, 304.75 K | 0.2
in n-propanol, 310.06 K | 0.221
in n-propanol, 315.41 K | 0.242
in n-propanol, 320.77 K | 0.266
in n-propanol, 326.16 K | 0.291

CC(=O)Oc1ccccc1C(=O)O
Conditions | solubility (mole fraction)
in MIBK, 277.46 K | 0.0196
in MIBK, 281.76 K | 0.023
in MIBK, 287.96 K | 0.0283
in MIBK, 292.96 K | 0.0331
in MIBK, 300.18 K | 0.0414
in MIBK, 307.27 K | 0.0511
in MIBK, 312.47 K | 0.0594
in MIBK, 318.36 K | 0.07
in MIBK, 327.95 K | 0.0897
in ethyl acetate, 275.86 K | 0.0154
in ethyl acetate, 283.66 K | 0.0204
in ethyl acetate, 289.86 K | 0.0254
in ethyl acetate, 296.16 K | 0.0313
in ethyl acetate, 302.67 K | 0.0384
in ethyl acetate, 308.68 K | 0.0467
in ethyl acetate, 315.16 K | 0.0564
in ethyl acetate, 321.37 K | 0.0676
in ethyl acetate, 327.91 K | 0.0807
in isobutanol, 276.36 K | 0.0098
in isobutanol, 284.46 K | 0.0151
in isobutanol, 289.27 K | 0.0194
in isobutanol, 294.3 K | 0.0247
in isobutanol, 299.16 K | 0.0309
in isobutanol, 303.65 K | 0.0383
in isobutanol, 308.26 K | 0.0469
in isobutanol, 312.61 K | 0.0567
in isobutanol, 316.87 K | 0.0679
in isobutanol, 320.96 K | 0.0807
in isobutanol, 322.96 K | 0.0875
in isobutanol, 326.57 K | 0.1
in isobutyl acetate, 277.86 K | 0.0109
in isobutyl acetate, 281.16 K | 0.0124
in isobutyl acetate, 287.78 K | 0.0157
in isobutyl acetate, 293.97 K | 0.0198
in isobutyl acetate, 300.25 K | 0.0247
in isobutyl acetate, 307.15 K | 0.0306
in isobutyl acetate, 313.56 K | 0.0376
in isobutyl acetate, 320.16 K | 0.046
in isobutyl acetate, 327.15 K | 0.0559
in n-butanol, 277.66 K | 0.0145
in n-butanol, 282.35 K | 0.0183
in n-butanol, 287.35 K | 0.0232
in n-butanol, 292.35 K | 0.0291
in n-butanol, 297.37 K | 0.036
in n-butanol, 301.66 K | 0.044
in n-butanol, 306.16 K | 0.0531
in n-butanol, 310.35 K | 0.0635
in n-butanol, 314.64 K | 0.0752
in n-butanol, 318.75 K | 0.0883
in n-butanol, 323.44 K | 0.103
in n-propanol, 276.36 K | 0.0164
in n-propanol, 282.96 K | 0.0227
in n-propanol, 288.16 K | 0.0286
in n-propanol, 293.16 K | 0.0354
in n-propanol, 297.85 K | 0.0434
in n-propanol, 302.55 K | 0.0527
in n-propanol, 307.06 K | 0.0632
in n-propanol, 311.66 K | 0.0752
in n-propanol, 316.06 K | 0.0887
in n-propanol, 320.45 K | 0.104
in n-propanol, 324.75 K | 0.121

Reference: BigSolDB 2.1
